What was measured:
ΔF508-CFTR [1] = biological target: T1, ΔF508-CFTR (Homo sapiens, UniProt P13569, DEL508-508); test: CFTR cell surface levels using HRP-tagged ΔF508-CFTR expressing CFBE cells, in the presence of a co-corrector; format: cell-based
T1 construct: host or cells: CFBE41o-, doxycycline-inducible
Procedure, shortened: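 Cells were seeded with 0.5 μg/mL doxycycline and held 68 h at 37 °C. Test compounds plus 3 μM co-corrector (final 0.1% DMSO) were then added for 20 h at 33 °C. Washed cells received HRP substrate, and luminescence was normalized between DMSO and 3 μM co-corrector controls.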

ΔF508-CFTR [2] = biological target: T1, ΔF508-CFTR; test: CFTR cell surface levels using HRP-tagged ΔF508-CFTR expressing CFBE cells, intrinsic corrector capacity; format: cell-based
Procedure, shortened: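 Here the cells express ΔF508-CFTR with horseradish peroxidase inserted in extracellular loop 4, so only rescued channel at the surface gives luminescent signal. Compounds act on their own, 20 h at the reduced temperature of 33 °C; values are percent activity relative to DMSO and a 3 μM corrector.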

[3] = HRP-tagged ΔF508-CFTR expressing CFBE cells, in the presence of 3 μM co-corrector
[4] = HRP-tagged ΔF508-CFTR expressing CFBE cells, intrinsic corrector capacity (no co-corrector), 33° C., 20 hours
[5] = HRP-tagged ΔF508-CFTR expressing CFBE cells, in the presence of 3 μM co-corrector, read-out: EC50
[6] = HRP-tagged ΔF508-CFTR CFBE41o- cells, compounds alone (intrinsic corrector capacity), 20 hours at 33° C., positive control 3 μM corrector
[7] = HRP-tagged ΔF508-CFTR CFBE41o- cells, compounds alone (intrinsic corrector capacity), 20 hours at 33° C., read-out: EC50
[8] = HRP-tagged ΔF508-CFTR expressing CFBE cells, intrinsic corrector capacity (no co-corrector), 33° C., 20 hours, read-out: EC50

T1 sequence (P13569 with tags, fused parts or gaps DEL508-508): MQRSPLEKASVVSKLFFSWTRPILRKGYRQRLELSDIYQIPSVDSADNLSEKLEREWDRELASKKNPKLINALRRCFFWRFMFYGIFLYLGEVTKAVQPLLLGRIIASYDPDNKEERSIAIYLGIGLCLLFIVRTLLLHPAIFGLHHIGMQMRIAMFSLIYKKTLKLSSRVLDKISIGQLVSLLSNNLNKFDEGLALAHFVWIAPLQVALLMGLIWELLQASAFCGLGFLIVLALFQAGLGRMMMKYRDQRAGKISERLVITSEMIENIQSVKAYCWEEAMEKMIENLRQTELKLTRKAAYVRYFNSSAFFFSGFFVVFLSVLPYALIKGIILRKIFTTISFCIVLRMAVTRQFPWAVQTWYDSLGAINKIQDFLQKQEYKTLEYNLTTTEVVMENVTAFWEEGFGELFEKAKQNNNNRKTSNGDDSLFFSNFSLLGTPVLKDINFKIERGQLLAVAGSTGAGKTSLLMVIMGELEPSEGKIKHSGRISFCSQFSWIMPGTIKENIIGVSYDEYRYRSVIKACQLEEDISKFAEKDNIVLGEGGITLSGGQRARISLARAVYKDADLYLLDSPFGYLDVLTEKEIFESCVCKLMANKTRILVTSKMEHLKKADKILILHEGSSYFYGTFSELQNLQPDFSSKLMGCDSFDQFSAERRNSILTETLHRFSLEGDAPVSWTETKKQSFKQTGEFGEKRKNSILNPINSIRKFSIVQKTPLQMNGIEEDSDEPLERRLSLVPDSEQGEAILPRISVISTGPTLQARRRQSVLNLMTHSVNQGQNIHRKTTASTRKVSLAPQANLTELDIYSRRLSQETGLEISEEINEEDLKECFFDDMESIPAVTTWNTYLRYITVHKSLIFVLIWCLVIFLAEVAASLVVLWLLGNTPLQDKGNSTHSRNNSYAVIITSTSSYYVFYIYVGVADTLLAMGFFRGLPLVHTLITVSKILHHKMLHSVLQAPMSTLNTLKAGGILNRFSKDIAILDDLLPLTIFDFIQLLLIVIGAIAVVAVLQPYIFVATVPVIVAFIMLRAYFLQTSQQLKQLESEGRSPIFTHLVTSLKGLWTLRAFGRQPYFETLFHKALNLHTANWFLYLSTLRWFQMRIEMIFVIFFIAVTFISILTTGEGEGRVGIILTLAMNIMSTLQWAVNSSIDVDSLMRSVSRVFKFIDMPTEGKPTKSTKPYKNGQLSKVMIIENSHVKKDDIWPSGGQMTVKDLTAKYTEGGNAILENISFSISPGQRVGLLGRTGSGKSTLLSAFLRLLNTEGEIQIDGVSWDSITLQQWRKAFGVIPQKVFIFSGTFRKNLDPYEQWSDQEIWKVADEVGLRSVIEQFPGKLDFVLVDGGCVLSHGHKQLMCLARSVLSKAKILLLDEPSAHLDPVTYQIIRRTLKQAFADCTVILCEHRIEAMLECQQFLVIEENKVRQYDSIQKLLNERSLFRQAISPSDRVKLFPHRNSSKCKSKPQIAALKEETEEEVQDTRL

Compound	EC50 (ΔF508-CFTR [1])	% Activation (ΔF508-CFTR [1]; [3])	EC50 (ΔF508-CFTR [2])	% Activation (ΔF508-CFTR [2]; [4])	EC50 (ΔF508-CFTR [1]; [5])	% Activation (ΔF508-CFTR [2]; [6])	EC50 (ΔF508-CFTR [2]; [7])	EC50 (ΔF508-CFTR [2]; [8])
O=C(O)c1cc(NC[C@@H]2CCCO2)c2c(C3CCC3)nn(-c3ccccc3)c2n1 [compound 655, 3-cyclobutyl-4-({[(2S)-oxolan-2-yl]methyl}amino)-1-phenyl-1H-pyrazolo[3,4-b]pyridine-6-carboxylic acid]	1.13 µM	340.2%	3.1 µM	165.6%				
Cc1nn(-c2ccccc2)c2nc(C(=O)O)cc(OC3CCN(C)CC3)c12 [compound 339, 3-methyl-4-[(1-methylpiperidin-4-yl)oxy]-1-phenyl-1H-pyrazolo[3,4-b]pyridine-6-carboxylic acid]		126.85%			7.5 µM	15.162%	7.5 µM	
CC(C)c1nn(C2CCC(F)(F)CC2)c2nc(C(=O)O)cc(-c3ccc(N4CCOCC4)cc3)c12 [compound 159, 1-(4,4-difluorocyclohexyl)-4-[4-(morpholin-4-yl)phenyl]-3-(propan-2-yl)-1H-pyrazolo[3,4-b]pyridine-6-carboxylic acid]		415.33%			0.755 µM	150.16%	0.737 µM	
CC(C)(O)c1nn(-c2ccccc2)c2nc(C(=O)O)cc(-c3ccc(N4CCOCC4)cc3)c12 [compound 63, 3-(2-hydroxypropan-2-yl)-4-[4-(morpholin-4-yl)phenyl]-1-phenyl-1H-pyrazolo[3,4-b]pyridine-6-carboxylic acid]		294.35%			3.34 µM	108.18%	3.34 µM	
CC(C)c1nn(C2CCCCC2)c2nc(C(=O)O)cc(-c3cnc(N(C)C4CCOCC4)nc3)c12 [compound 236, 1-cyclohexyl-4-{2-[methyl(oxan-4-yl)amino]pyrimidin-5-yl}-3-(propan-2-yl)-1H-pyrazolo[3,4-b]pyridine-6-carboxylic acid]		423.62%			0.638 µM	213.68%	0.656 µM	
Cc1cccc(-n2nc(C(C)C)c3c(N4CCC5(CC4)CN(C)C(=O)O5)cc(C(=O)O)nc32)c1 [compound 359, 4-(3-methyl-2-oxo-1-oxa-3,8-diazaspiro[4.5]decan-8-yl)-1-(3-methylphenyl)-3-(propan-2-yl)-1H-pyrazolo[3,4-b]pyridine-6-carboxylic acid]		349.55%			2.18 µM	142%	2.04 µM	
Cc1nn(-c2ccccc2)c2nc(C(=O)O)cc(OCC3(C)CC(F)(F)C3)c12 [compound 386, 4-[(3,3-difluoro-1-methylcyclobutyl)methoxy]-3-methyl-1-phenyl-1H-pyrazolo[3,4-b]pyridine-6-carboxylic acid]		250.65%			1.44 µM	64.285%	1.31 µM	
CCN(CC)CCN1CCN(c2cc(C(=O)O)nc3c2c(C(C)C)nn3-c2ccc(F)cc2)CC1 [compound 800, 4-[4-[2-(diethylamino)ethyl]piperazin-1-yl}-1-(4-fluorophenyl)-3-(propan-2-yl)-1H-pyrazolo[3,4-b]pyridine-6-carboxylic acid]		214.8%		45.22%	1.49 µM			1.67 µM
Cc1cccc(-n2nc(C3CCC3)c3c(N4CCC(N5CCOCC5)CC4)cc(C(=O)O)nc32)c1 [compound 820, 3-cyclobutyl-1-(3-methylphenyl)-4-[4-(morpholin-4-yl)piperidin-1-yl]-1H-pyrazolo[3,4-b]pyridine-6-carboxylic acid]		499.75%		351.3%	0.123 µM			0.285 µM
Cc1nn(-c2ccccc2)c2nc(C(=O)O)cc(C3=CCOCC3)c12 [compound 128, 4-(3,6-dihydro-2H-pyran-4-yl)-3-methyl-1-phenyl-1H-pyrazolo[3,4-b]pyridine-6-carboxylic acid]		175.85%			3.34 µM	33.92%	3.34 µM	

— US9796711B2, “Substituted pyrazolo[3,4-b]pyridin-6-carboxylic acids and method of use” (AbbVie S.àr.l., priority 2015, dated 2017)
